Test results as given in the NIST ThermoML archive (doi:10.1021/je500804j).

Assay: mn = molality of the nth substance listed, in mol/kg
Details: 101 kPa, Liquid, Alternating current cell with electrodes

CCCCCCCC[N+](C)(C)CCCCCC[N+](C)(C)CCCCCCCC.[Br-].[Br-] + O
Details | electrical conductivity [S/m]
303.15 K, m1 = 0.1147 | 1.235
303.15 K, m1 = 0.1161 | 1.242
308.15 K, m1 = 0.00368 | 0.09215
308.15 K, m1 = 0.00726 | 0.1725
308.15 K, m1 = 0.01076 | 0.2453
308.15 K, m1 = 0.01417 | 0.3115
308.15 K, m1 = 0.0175 | 0.3725
308.15 K, m1 = 0.02076 | 0.4289
308.15 K, m1 = 0.02394 | 0.4827
308.15 K, m1 = 0.02704 | 0.5324
308.15 K, m1 = 0.03008 | 0.5804
308.15 K, m1 = 0.03304 | 0.6259
308.15 K, m1 = 0.03595 | 0.6694
308.15 K, m1 = 0.03878 | 0.7099
308.15 K, m1 = 0.04156 | 0.7496
308.15 K, m1 = 0.04428 | 0.7852
308.15 K, m1 = 0.04693 | 0.8231
308.15 K, m1 = 0.05209 | 0.8882
308.15 K, m1 = 0.05458 | 0.9163
308.15 K, m1 = 0.05703 | 0.9472
308.15 K, m1 = 0.05942 | 0.9728
308.15 K, m1 = 0.06177 | 1.001
308.15 K, m1 = 0.06407 | 1.027
308.15 K, m1 = 0.06633 | 1.05
308.15 K, m1 = 0.06854 | 1.072
308.15 K, m1 = 0.07072 | 1.092
308.15 K, m1 = 0.07284 | 1.111
308.15 K, m1 = 0.07493 | 1.128
308.15 K, m1 = 0.07698 | 1.149
308.15 K, m1 = 0.079 | 1.164
308.15 K, m1 = 0.08097 | 1.182
308.15 K, m1 = 0.08291 | 1.195
308.15 K, m1 = 0.08482 | 1.211
308.15 K, m1 = 0.08669 | 1.225
308.15 K, m1 = 0.08852 | 1.238
308.15 K, m1 = 0.09033 | 1.251
308.15 K, m1 = 0.0921 | 1.264
308.15 K, m1 = 0.09385 | 1.276
308.15 K, m1 = 0.09556 | 1.286
308.15 K, m1 = 0.09725 | 1.298
308.15 K, m1 = 0.0989 | 1.308
308.15 K, m1 = 0.1005 | 1.319
308.15 K, m1 = 0.1021 | 1.326
308.15 K, m1 = 0.1037 | 1.337
308.15 K, m1 = 0.1053 | 1.346
308.15 K, m1 = 0.1068 | 1.354
308.15 K, m1 = 0.1083 | 1.363
308.15 K, m1 = 0.1098 | 1.37
308.15 K, m1 = 0.1112 | 1.38
308.15 K, m1 = 0.1127 | 1.385
308.15 K, m1 = 0.1141 | 1.392
313.15 K, m1 = 0.00383 | 0.1036
313.15 K, m1 = 0.00755 | 0.1854
313.15 K, m1 = 0.01119 | 0.2548
313.15 K, m1 = 0.01473 | 0.3279
313.15 K, m1 = 0.01819 | 0.3993
313.15 K, m1 = 0.02156 | 0.4651
313.15 K, m1 = 0.02485 | 0.5281
313.15 K, m1 = 0.02806 | 0.5866
313.15 K, m1 = 0.0312 | 0.6397
313.15 K, m1 = 0.03426 | 0.6934
313.15 K, m1 = 0.03725 | 0.7428
313.15 K, m1 = 0.04018 | 0.7886
313.15 K, m1 = 0.04304 | 0.8328
313.15 K, m1 = 0.04583 | 0.8749
313.15 K, m1 = 0.04857 | 0.9139
313.15 K, m1 = 0.05386 | 0.9883
313.15 K, m1 = 0.05642 | 1.024
313.15 K, m1 = 0.05893 | 1.055
313.15 K, m1 = 0.06138 | 1.086
313.15 K, m1 = 0.06379 | 1.114
313.15 K, m1 = 0.06615 | 1.139
313.15 K, m1 = 0.06845 | 1.165
313.15 K, m1 = 0.07072 | 1.19
313.15 K, m1 = 0.07293 | 1.212
313.15 K, m1 = 0.07511 | 1.236
313.15 K, m1 = 0.07724 | 1.257
313.15 K, m1 = 0.07933 | 1.276
313.15 K, m1 = 0.08138 | 1.296
313.15 K, m1 = 0.08339 | 1.314
313.15 K, m1 = 0.08537 | 1.332
313.15 K, m1 = 0.0873 | 1.348
313.15 K, m1 = 0.08921 | 1.364
313.15 K, m1 = 0.09107 | 1.378
313.15 K, m1 = 0.09291 | 1.392
313.15 K, m1 = 0.09471 | 1.406
313.15 K, m1 = 0.09648 | 1.418
313.15 K, m1 = 0.09822 | 1.432
313.15 K, m1 = 0.09993 | 1.444
313.15 K, m1 = 0.1016 | 1.457
313.15 K, m1 = 0.1032 | 1.467
313.15 K, m1 = 0.1049 | 1.476
313.15 K, m1 = 0.1065 | 1.487
313.15 K, m1 = 0.108 | 1.493
313.15 K, m1 = 0.1096 | 1.505
313.15 K, m1 = 0.1111 | 1.516
313.15 K, m1 = 0.1126 | 1.527
313.15 K, m1 = 0.1141 | 1.537
313.15 K, m1 = 0.1155 | 1.545
